{"source": "patent US11166914B2", "about": "“Tumor therapeutic agent and kit containing gemcitabine liposome composition” (FUJIFILM Corporation, priority 2015, dated 2021)", "key": {"malignant tumors": {"tested_on": "malignant tumors", "conditions": "gemcitabine single agent, cancer patients; N Engl J Med 2013, 369 (18), 1691-1703; cited from earlier work"}, "[1]": {"tested_on": "Capan-1 cells of a human pancreatic cancer cell strain", "assay": "Pharmacological test on Capan-1 subcutaneous transplantation tumor-bearing mouse model", "assay_type": "in vivo, female nude mouse", "conditions": "single agent, no Abx; Gem 240 mg/kg or composition A 3 mg/kg as gemcitabine; tail vein once a week for 3 weeks from day 17", "description": "The volume of a tumor was calculated using the following equation by measuring the major axis (a) and the minor axis (b) of the tumor with calipers. (a×b^2)×0.5 (where “a” is the major axis and “b” is the minor axis.) Equation: […]\nGemcitabine (hereinafter, also referred to as Gem), abraxane (hereinafter, also referred to as Abx), and a gemcitabine-contained liposome composition (hereinafter, also referred to as a composition A) were used as test substances.\nGem was prepared by dissolving gemcitabine hydrochloride (manufactured by TEVA) in physiological saline. Abx obtained by dissolving abraxane (manufactured by Celgene) in physiological saline was used. A gemcitabine-contained liposome composition prepared in Reference Example 1 was used.\n1×10^7 Capan-1 cells of a human pancreatic cancer cell strain were transplanted subcutaneously into the flank of a female nude mouse to form subcutaneous tumors. The effect of controlling the subcutaneous tumor in combination administration of Abx and the composition A was evaluated using the volume of the tumor as an index. As test substances, a sucrose solution was used as a group 1, Gem was used as a group 2, a composition A was used as a group 3, Abx and Gem were respectively used as a group 4 and a group 5, and Abx and a composition A were respectively used as a group 6 and a group 7. Groups 1 to 5 are comparative examples and groups 6 and 7 are examples. All test substances were administered to the tail vein once a week from day 17 after transplantation for a total of 3 weeks.\nTukey's multiple comparisons test was performed as a statistical analysis, and a P value less than 5% among the groups was determined to indicate that there is a statistically significant difference. Graphpad Prism version 5.03 was used for data processing."}, "[2]": {"conditions": "gemcitabine single agent; background statement; cited from earlier work"}}, "note": "Counter-ions that a name gives are not always drawn.", "data": [{"smiles": "Nc1ccn([C@@H]2O[C@H](CO)[C@@H](O)C2(F)F)c(=O)n1", "note": "[Gem, gemcitabine hydrochloride]", "values": [{"measurement": "Efficiency of single agent to a tumor", "setting": "malignant tumors", "result": 10, "unit": "%"}, {"measurement": "Median survival period", "setting": "malignant tumors", "result": 6.7, "unit": "months"}, {"measurement": "Number of days until tumor volume average value of 2,000 mm^3 is reached", "setting": "[1]", "result": 52, "unit": "days"}, {"measurement": "Tumor regression rate from start of medication", "setting": "[1]", "result": "N.R."}, {"measurement": "Tumor volume average value on day 38 after transplantation", "setting": "[1]", "result": "1397^a) mm^3"}, {"measurement": "Retention time in blood", "setting": "[2]", "result": 20, "unit": "min"}]}]}
